Measured values published in PubChem BioAssay AID342 (DTP/NCI, 2004).

System: Swiss mice, Sarcoma 180 sc, mean tumor weight T/C
Experiment: NCI In Vivo Anticancer Drug Screen. Data for tumor model Sarcoma 180 (subcutaneous) in Swiss mice
Settings: endpoint: mean tumor weight, higher = larger tumour
Outline: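 Readout is the ratio of treated-group measurement to vehicle-control measurement (T/C), based on survival or tumor size in mice carrying transplanted tumors.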

[1] = dose: 7.0 mg/kg/injection, schedule: Q01DX007 (ip), vehicle: carboxymethylcellulose (CMC)
[2] = dose: 37.0 mg/kg/injection, schedule: Q01DX007 (ip), vehicle: carboxymethylcellulose (CMC)
[3] = dose: 150.0 mg/kg/injection, schedule: Q01DX007 (ip), vehicle: carboxymethylcellulose (CMC)

In the case of `CSc1nc(C)c(Br)c(Sc2nc(N)nc3nc[nH]c23)n1`, the T/C (dose: 4.0 mg/kg/injection, schedule: Q01DX007 (ip), vehicle: carboxymethylcellulose (CMC)) is reported as 91 % of control, the T/C (dose: 5.0 mg/kg/injection, schedule: Q01DX007 (ip), vehicle: carboxymethylcellulose (CMC)) is reported as 84 % of control and the T/C (dose: 5.5 mg/kg/injection, schedule: Q#A X014 (ip), vehicle: carboxymethylcellulose (CMC)) is reported as 43 % of control. For the same compound, the T/C (dose: 5.5 mg/kg/injection, schedule: Q#A X014 (ip), vehicle: methylcellulose (MC)) was 24 % of control, the T/C (dose: 6.0 mg/kg/injection, schedule: Q01DX007 (ip), vehicle: carboxymethylcellulose (CMC)) was 90 % of control and the T/C (dose: 6.2 mg/kg/injection, schedule: Q01DX007 (ip), vehicle: carboxymethylcellulose (CMC)) was 77 % of control. For the same compound, the T/C [1] was 66 % of control, the T/C (dose: 8.5 mg/kg/injection, schedule: Q#A X014 (ip), vehicle: carboxymethylcellulose (CMC)) was 33 % of control and the T/C (dose: 8.5 mg/kg/injection, schedule: Q#A X014 (ip), vehicle: methylcellulose (MC)) was 57 % of control. For the same compound, the T/C (dose: 11.0 mg/kg/injection, schedule: Q01DX007 (ip), vehicle: carboxymethylcellulose (CMC)) was 74 % of control, the T/C (dose: 12.5 mg/kg/injection, schedule: Q01DX007 (ip), vehicle: carboxymethylcellulose (CMC)) was 69 % of control and the T/C (dose: 12.5 mg/kg/injection, schedule: Q#A X014 (ip), vehicle: carboxymethylcellulose (CMC)) was 24 % of control. The T/C (dose: 12.5 mg/kg/injection, schedule: Q#A X014 (ip), vehicle: methylcellulose (MC)) was 16 % of control, the T/C (dose: 17.0 mg/kg/injection, schedule: Q01DX007 (ip), vehicle: carboxymethylcellulose (CMC)) was 31 % of control and the T/C (dose: 18.5 mg/kg/injection, schedule: Q#A X014 (ip), vehicle: carboxymethylcellulose (CMC)) was 18 % of control. For the same compound, the T/C (dose: 18.5 mg/kg/injection, schedule: Q#A X014 (ip), vehicle: methylcellulose (MC)) was 7 % of control, the T/C (dose: 25.0 mg/kg/injection, schedule: Q01DX007 (ip), vehicle: carboxymethylcellulose (CMC)) was 20 % of control and the T/C [2] was 22 % of control. The T/C (dose: 40.0 mg/kg/injection, schedule: Q01DX007 (ip), vehicle: carboxymethylcellulose (CMC)) was 52 % of control and the T/C (dose: 60.0 mg/kg/injection, schedule: Q01DX007 (ip), vehicle: carboxymethylcellulose (CMC)) was 46 % of control.

`CCC1OCCN1C(C)C` (stereo not drawn) was tested, and the T/C (dose: 20.0 mg/kg/injection, schedule: Q01DX007 (ip), vehicle: other) was 80 % of control, the T/C (dose: 33.0 mg/kg/injection, schedule: Q01DX007 (ip), vehicle: other) was 75 % of control and the T/C (dose: 55.5 mg/kg/injection, schedule: Q01DX007 (ip), vehicle: saline) was 79 % of control. The T/C (dose: 56.0 mg/kg/injection, schedule: Q01DX007 (ip), vehicle: other) was 63 % of control, the T/C (dose: 83.3 mg/kg/injection, schedule: Q01DX007 (ip), vehicle: saline) was 43 % of control and the T/C (dose: 84.0 mg/kg/injection, schedule: Q01DX007 (ip), vehicle: other) was 49 % of control. For the same compound, the T/C (dose: 125.0 mg/kg/injection, schedule: Q01DX007 (ip), vehicle: saline) was 21 % of control.

For `NC(=O)CCC(NC(=O)c1ccc([N+](=O)[O-])cc1)C(=O)O` (stereo not drawn), the T/C (dose: 62.5 mg/kg/injection, schedule: Q01DX007 (ip), vehicle: other) was 69 % of control, the T/C (dose: 125.0 mg/kg/injection, schedule: Q01DX007 (ip), vehicle: other) was 50 % of control and the T/C (dose: 250.0 mg/kg/injection, schedule: Q01DX007 (ip), vehicle: other) was 63 % of control.

For `CCOC(=O)Sc1ncnc2nc[nH]c12`, the T/C (dose: 1.7 mg/kg/injection, schedule: Q01DX007 (ip), vehicle: carboxymethylcellulose (CMC)) was 109 % of control, the T/C (dose: 3.5 mg/kg/injection, schedule: Q01DX007 (ip), vehicle: carboxymethylcellulose (CMC)) was 84 % of control and the T/C [1] was 102 % of control. For the same compound, the T/C (dose: 14.0 mg/kg/injection, schedule: Q01DX007 (ip), vehicle: carboxymethylcellulose (CMC)) was 41 % of control, the T/C (dose: 28.0 mg/kg/injection, schedule: Q01DX007 (ip), vehicle: carboxymethylcellulose (CMC)) was 46 % of control and the T/C (dose: 44.0 mg/kg/injection, schedule: Q01DX007 (ip), vehicle: carboxymethylcellulose (CMC)) was 56 % of control. The T/C (dose: 56.0 mg/kg/injection, schedule: Q01DX007 (ip), vehicle: carboxymethylcellulose (CMC)) was 30 % of control, the T/C (dose: 66.0 mg/kg/injection, schedule: Q01DX007 (ip), vehicle: carboxymethylcellulose (CMC)) was 61 % of control and the T/C (dose: 100.0 mg/kg/injection, schedule: Q01DX007 (ip), vehicle: carboxymethylcellulose (CMC)) was 35 % of control. For the same compound, the T/C (dose: 112.0 mg/kg/injection, schedule: Q01DX007 (ip), vehicle: carboxymethylcellulose (CMC)) was 22 % of control and the T/C [3] was 30 % of control.

`[N-]=[N+]=CC(=O)NCC(=O)NN` was tested, and the T/C (dose: 400.0 mg/kg/injection, schedule: Q01DX007 (ip), vehicle: water) was 45 % of control, the T/C (dose: 450.0 mg/kg/injection, schedule: Q01DX007 (ip), vehicle: other) was 43 % of control and the T/C (dose: 500.0 mg/kg/injection, schedule: Q01DX007 (ip), vehicle: other) was 50 % of control. The T/C (dose: 600.0 mg/kg/injection, schedule: Q01DX007 (ip), vehicle: water) was 34 % of control.

With `Nc1ncnc2c1ncn2C1OC(CO)CC1O` (stereo not drawn) the T/C [2] was 104 % of control, the T/C (dose: 75.0 mg/kg/injection, schedule: Q01DX007 (ip), vehicle: carboxymethylcellulose (CMC)) was 122 % of control and the T/C [3] was 80 % of control. The T/C (dose: 300.0 mg/kg/injection, schedule: Q01DX007 (ip), vehicle: carboxymethylcellulose (CMC)) was 53 % of control.

With `COc1ccc(CSc2ncnc3nc[nH]c23)cc1` the T/C (dose: 55.5 mg/kg/injection, schedule: Q#A X014 (ip), vehicle: methylcellulose (MC)) was 48 % of control, the T/C (dose: 83.0 mg/kg/injection, schedule: Q#A X014 (ip), vehicle: methylcellulose (MC)) was 29 % of control and the T/C (dose: 125.0 mg/kg/injection, schedule: Q#A X014 (ip), vehicle: methylcellulose (MC)) was 14 % of control. The T/C (dose: 187.5 mg/kg/injection, schedule: Q#A X014 (ip), vehicle: methylcellulose (MC)) was 10 % of control.
